Experiment [1] relates to SARS-CoV. Nature of the experiment: Inhibition of human SARS-CoV Toronto-2 at 300 uM in a cell based assay. It counts as functional. Conditions: Severe acute respiratory syndrome-related coronavirus.
Experiment [2] relates to SARS-CoV. Nature of the experiment: Inhibition of human SARS-CoV Toronto-2 in a cell based assay. In kind it is functional, organism-based. Conditions: Severe acute respiratory syndrome-related coronavirus.

The structures appear in SMILES notation.

As to `O=C(O)c1ccc(NC(=O)c2cccc3c2C2=C(CCCC2)C3=O)cc1`, in the experiment with SARS-CoV [1], the inhibition at 300 µM came out at 25%.

Turning to `O=C(O)c1ccc(/N=C/c2c(O)ccc3oc4c(c23)CCCC4)cc1`, in the experiment on SARS-CoV [2], the EC50 came to 23 µM.

The values are drawn from ChEMBL document CHEMBL1149467, “From genome to drug lead: identification of a small-molecule inhibitor of the SARS virus” (Bioorg Med Chem Lett, 2006).
